Results: patent US12653774B2, “Topical compositions and methods for using same” (MARY KAY INC., priority 2022, dated 2026)

Molecular target: T1, TRPV-1 (Rattus norvegicus, UniProt O35433)
T1 construct: host or cells: PC 12 cells
Experiment: Capsaicin induced TRPV-1 mediated calcium flux assay (Fura-2AM) in PC 12 cells
Format: cell-based
Description: (§1) Briefly, Ca^2+ influx was used as a measure of TRPV-1 activity. PC 12 cells (ATCC CRL-1721) were pre-incubated for 4 hours at 37° C. with the respective noted compounds (e.g., plankton extract (test), or capsazepine (positive control)). Following pre-incubation, treatment media was removed and cells were incubated with 100 μl of 0.67 μM Fura-2-acetoxymethyl ester ((Fura-2AM), a high affinity, intracellular calcium indicator that is ratiometric and UV light—excitable) for 1 hour at 37° C. After incubation, cells were treated with 200 μM of capsaicin to induce TRPV-1 mediated Ca^2+ flux response and fluorescence readings were taken every 7 seconds for 10 minutes at 360/460 nm. Data was normalized to controls, plotted as shown, and area under the curve (AUC) values were determined (see Table 2).
as §1, with “test compounds.” for “noted compounds (e.g., plankton extract (test), or capsazepine (positive control)).”, “Fura-2AM” for “Fura-2-acetoxymethyl ester ((Fura-2AM), a high affinity, intracellular calcium indicator that is ratiometric and UV light—excitable)”, “AUC” for “area under the curve (AUC)”
Ingredient samples were analyzed for their ability to inhibit calcium flux production in PC 12 cells (ATCC CRL-1721). PC 12 cells were maintained and passaged according to the manufacturer's recommended guidelines. For experiments, 1×10^5 cells/well were plated in 96 well black flat bottom plates. Fura-2-Acetoxymethyl ester (Fura-2AM) calcium detection assay kit (Cayman Chemical #14591) was used to detect calcium in the cells post treatment. Capsaicin (Sigma #M202) was used to trigger a response, and capsazepine (Sigma #C191) was used as a positive control. In brief, Ca2^+ influx was used as a measure of TRPV-1 activity. PC 12 cells (ATCC CRL-1721) were pre-incubated for 4 hours at 37° C. with the respective test compounds. Following pre-incubation, treatment media was removed and cells were incubated with 100 μl of 0.67 μM Fura-2AM for 1 hour at 37° C. After incubation, cells were treated with 200μM of capsaicin to induce TRPV-1 mediated Ca^2+ flux response and fluorescence readings were taken every 7 seconds for 10 minutes at 360/460 nm. Following the test period, buffer was removed and 100 μl diluted MTS reagent was added to each well. Cells were incubated for 15 to 30 minutes at 37° C. 5% CO2, and plates were then read at 490 nm. Cell viability was assessed prior to analyzing for calcium flux.
Fluorescence test data was normalized to controls to generate area under the curve (AUC) values. For each control and test, fluorescence arbitrary units (AU) were normalized to controls for timepoints 0, and 0.5-9 minutes. The normalized data was plotted on an XY graph using GraphPad Prism software to generate a calcium flux curve, with time on the X axis, and normalized AU on the Y axis. The AUC was then calculated for the untreated control, and net AUC was determined for each test and control condition.

[1] = 400 μM, pre-incubation 4 hours, then 200 μM capsaicin, positive control

T1 sequence (O35433 whole entry): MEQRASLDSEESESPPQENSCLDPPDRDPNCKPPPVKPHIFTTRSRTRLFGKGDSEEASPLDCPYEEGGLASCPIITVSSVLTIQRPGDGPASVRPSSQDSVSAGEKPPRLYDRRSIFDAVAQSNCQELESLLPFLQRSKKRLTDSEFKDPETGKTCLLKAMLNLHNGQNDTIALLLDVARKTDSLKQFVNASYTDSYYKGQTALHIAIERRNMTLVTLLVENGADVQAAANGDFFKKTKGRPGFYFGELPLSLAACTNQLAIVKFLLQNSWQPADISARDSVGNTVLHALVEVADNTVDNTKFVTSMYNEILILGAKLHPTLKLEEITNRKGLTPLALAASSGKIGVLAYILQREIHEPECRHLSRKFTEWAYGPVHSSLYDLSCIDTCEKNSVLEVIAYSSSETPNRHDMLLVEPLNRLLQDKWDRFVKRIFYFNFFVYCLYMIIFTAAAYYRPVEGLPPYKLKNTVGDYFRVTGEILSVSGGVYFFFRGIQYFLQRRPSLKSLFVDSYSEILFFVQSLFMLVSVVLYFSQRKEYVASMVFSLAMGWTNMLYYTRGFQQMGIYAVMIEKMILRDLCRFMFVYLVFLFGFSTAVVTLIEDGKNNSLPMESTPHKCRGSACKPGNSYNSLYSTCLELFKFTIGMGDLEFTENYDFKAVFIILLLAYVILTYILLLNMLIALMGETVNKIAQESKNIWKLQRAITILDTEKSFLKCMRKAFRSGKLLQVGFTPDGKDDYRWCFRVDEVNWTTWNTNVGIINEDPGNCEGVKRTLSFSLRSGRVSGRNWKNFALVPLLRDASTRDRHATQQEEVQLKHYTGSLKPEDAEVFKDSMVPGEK

Delta compared to untreated (200 μM, net AUC vs untreated baseline 9.009, negative control) | AUC (200 μM, normalized Ca2+ flux curve, PC 12 cells, negative control) | Percentage activity compared to positive control (200 μM, relative to capsazepine 400 μM, negative control) [%] | AUC [1] | Delta compared to untreated [1] | Percentage activity compared to positive control (400 μM, the positive control itself) | SMILES
0.944 | 9.953 | −453.56 |  |  |  | COc1cc(CNC(=O)CCCC/C=C/C(C)C)ccc1O [Capsaicin]
 |  |  | 8.742 | −0.267 | NA (0) % | Oc1cc2c(cc1O)CN(C(=S)NCCc1ccc(Cl)cc1)CCC2 [Capsazepine, capsazepine]
